Measurements: US8859535B2, “Hydroxy substituted isoquinolinone derivatives” (Novartis AG, priority 2011, dated 2014)

Columns and labels:
Format in all cases: binding
[1] = target: T1, human MDM2 protein (amino acids 2-188) (Homo sapiens, UniProt Q00987); experiment: p53-MDM2 TR-FRET assay (p53-MDM2 Assay 1); settings: 1.25 nM MDM2-biotinylated, 10 nM Cy5-p53 peptide; read-out: IC50 (μM) of p53-Hdm2 inhibition (TR-FRET) Assay 1
T1 construct: human MDM2 protein (amino acids 2-188); made in house
How it was run: (§1)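 Peptide displacement read as 665/620 nm TR-FRET ratio (excitation 340 nm) after 15 min room temperature with 10 nM Cy5-p53 aa18-26, following 15 min preincubation of Eu-streptavidin (0.625 nM) with biotinylated MDM4 aa 2-185 (2.5 nM) or MDM2 aa 2-188 (1.25 nM); IC50 curve-fitted. MDM2 Assay 2: MDM2 and Eu-streptavidin each 0.1 nM.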

[2] = target: T1, human MDM2 protein (amino acids 2-188); experiment: p53-MDM2 TR-FRET assay, modified (p53-MDM2 Assay 2); settings: 0.1 nM MDM2, 0.1 nM Europium labeled streptavidin; read-out: IC50 (nM) of p53-Hdm2 inhibition (TR-FRET) Assay 2
How it was run: as §1

[3] = target: T2, human MDM4 protein (amino acids 2-185) (Homo sapiens, UniProt O15151); experiment: p53-MDM4 TR-FRET assay (p53-MDM4 Assay 1); settings: 2.5 nM MDM4-biotinylated, 10 nM Cy5-p53 peptide; read-out: IC50 (μM) of p53-Hdm4 inhibition (TR-FRET) Assay 1
T2 construct: human MDM4 protein (amino acids 2-185); made in house
T2 sequence (O15151 2-185): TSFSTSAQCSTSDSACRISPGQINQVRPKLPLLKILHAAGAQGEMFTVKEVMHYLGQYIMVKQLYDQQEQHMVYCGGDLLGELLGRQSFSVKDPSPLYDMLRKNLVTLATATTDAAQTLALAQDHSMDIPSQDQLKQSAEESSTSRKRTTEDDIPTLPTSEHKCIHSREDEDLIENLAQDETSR
How it was run: as §1

T1 sequence (Q00987 2-188): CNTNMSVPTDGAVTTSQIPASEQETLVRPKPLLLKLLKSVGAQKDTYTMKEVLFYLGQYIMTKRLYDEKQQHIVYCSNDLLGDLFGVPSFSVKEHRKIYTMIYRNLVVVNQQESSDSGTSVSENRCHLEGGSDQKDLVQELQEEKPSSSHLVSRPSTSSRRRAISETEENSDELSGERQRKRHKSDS

COc1cc2c(cc1OC(C)C)[C@H](c1ccc(Cl)cc1)N(c1ccc([C@@](C)(O)C3CC4CCC(C3)S4(=O)=O)cc1)C(=O)C2 (stereo partly drawn) [Example 174, (S)-1-(4-Chloro-phenyl)-2-{4-[(S)-1-(8,8-dioxo-8-thia-bicyclo[3.2.1]oct-3-yl)-1-hydroxy-ethyl]-phenyl}-7-isopropoxy-6-methoxy-1,4-dihydro-2H-isoquinolin-3-one]
IC50 [1]: 0.0009 µM
IC50 [2]: 0.961 nM
IC50 [3]: 1.17 µM

COc1cc2c(cc1OC(C)C)[C@H](c1ccc(Cl)cc1)N(c1ccc(C(C)(O)C3CCN(C(=O)COC(C)=O)CC3)cc1)C(=O)C2 (mixture of isomers) [Example 91, Acetic acid 2-[4-(1-{4-[(S)-1-(4-chloro-phenyl)-7-isopropoxy-6-methoxy-3-oxo-3,4-dihydro-1H-isoquinolin-2-yl]-phenyl}-1-hydroxy-ethyl)-piperidin-1-yl]-2-oxo-ethyl ester]
IC50 [1]: 0.0023 µM
IC50 [2]: 1.85 nM
IC50 [3]: 2.16 µM

COc1cc2c(cc1OC(C)C)[C@H](c1ccc(Cl)cc1)N(c1ccc(C(C)(O)C3CCN(C4CCC4)CC3)cc1)C(=O)C2 (stereo partly drawn) [Example 97, (S)-1-(4-Chloro-phenyl)-2-{4-[1-(1-cyclobutyl-piperidin-4-yl)-1-hydroxy-ethyl]-phenyl}-7-isopropoxy-6-methoxy-1,4-dihydro-2H-isoquinolin-3-one]
IC50 [1]: 0.0025 µM
IC50 [2]: 2.4 nM
IC50 [3]: 2.43 µM

COc1cc2c(cc1OC(C)C)[C@H](c1ccc(Cl)cc1)N(c1ccc(C(C)(O)C3CCN(C(=O)CO)CC3)cc1)C(=O)C2 (mixture of isomers) [Example 92, (S)-1-(4-Chloro-phenyl)-2-(4-{1-hydroxy-1-[1-(2-hydroxy-acetyl)-piperidin-4-yl]-ethyl}-phenyl)-7-isopropoxy-6-methoxy-1,4-dihydro-2H-isoquinolin-3-one]
IC50 [1]: 0.0036 µM
IC50 [2]: 1.84 nM
IC50 [3]: 2.71 µM

COc1cc2c(cc1OC(C)C)[C@H](c1ccc(Cl)cc1)N(c1ccc(C(C)(O)C3CCN(C4COC4)CC3)cc1)C(=O)C2 (stereo partly drawn) [Example 96, (S)-1-(4-Chloro-phenyl)-2-{4-[1-hydroxy-1-(1-oxetan-3-yl-piperidin-4-yl)-ethyl]-phenyl}-7-isopropoxy-6-methoxy-1,4-dihydro-2H-isoquinolin-3-one]
IC50 [1]: 0.0021 µM
IC50 [2]: 1.35 nM
IC50 [3]: 2.18 µM
